How the values were obtained:
[1] = Critical micelle concentration (CMC) by DPH fluorescence; type: physicochemical; details: for CMC: 50 mM tris-HCl, pH 8.0
AcrB = molecular target: T1, AcrB (Escherichia coli, UniProt P31224); assay: Extraction of AcrB from membranes (SDS-PAGE of supernatant); parameters: species or system bacterial; same expression system (E. coli C41DE3); details: detergent 10 g/l unless indicated otherwise; 2 h at 4° C.
T1 construct: made in house; host or cells: E. coli C41(DE3)
T1 sequence (P31224 whole entry): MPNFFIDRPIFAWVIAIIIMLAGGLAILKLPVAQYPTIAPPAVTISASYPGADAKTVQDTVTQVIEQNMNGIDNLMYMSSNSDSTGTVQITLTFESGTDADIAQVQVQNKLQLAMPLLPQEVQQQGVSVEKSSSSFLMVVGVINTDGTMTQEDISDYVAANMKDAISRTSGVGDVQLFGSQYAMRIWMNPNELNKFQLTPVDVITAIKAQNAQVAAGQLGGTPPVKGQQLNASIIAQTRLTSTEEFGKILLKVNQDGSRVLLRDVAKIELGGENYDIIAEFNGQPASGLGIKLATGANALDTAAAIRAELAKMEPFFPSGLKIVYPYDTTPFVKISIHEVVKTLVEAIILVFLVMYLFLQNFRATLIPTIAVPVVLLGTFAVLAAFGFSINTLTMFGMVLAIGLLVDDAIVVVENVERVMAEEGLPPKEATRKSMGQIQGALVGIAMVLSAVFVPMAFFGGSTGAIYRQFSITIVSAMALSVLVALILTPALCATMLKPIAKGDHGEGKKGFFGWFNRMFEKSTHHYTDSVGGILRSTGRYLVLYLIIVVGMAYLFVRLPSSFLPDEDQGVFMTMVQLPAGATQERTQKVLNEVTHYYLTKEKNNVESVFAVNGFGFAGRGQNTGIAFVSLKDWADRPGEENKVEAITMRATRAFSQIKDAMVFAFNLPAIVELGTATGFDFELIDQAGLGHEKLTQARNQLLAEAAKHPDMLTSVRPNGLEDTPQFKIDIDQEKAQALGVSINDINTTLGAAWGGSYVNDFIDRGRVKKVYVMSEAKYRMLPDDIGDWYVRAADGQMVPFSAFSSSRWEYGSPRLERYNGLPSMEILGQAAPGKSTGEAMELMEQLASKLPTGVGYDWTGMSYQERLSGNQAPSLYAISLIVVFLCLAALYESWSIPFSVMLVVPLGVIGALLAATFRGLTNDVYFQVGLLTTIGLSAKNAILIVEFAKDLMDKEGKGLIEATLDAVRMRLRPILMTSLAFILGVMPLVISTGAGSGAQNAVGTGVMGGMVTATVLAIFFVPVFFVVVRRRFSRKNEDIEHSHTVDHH
In short: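 E. coli C41(DE3) membranes overexpressing BmrA (~25% of protein) or AcrB (~20%), at 2 g/l protein in 20 mM Tris-HCl pH 8.0, 100 mM NaCl, 15% glycerol with protease inhibitors, treated with detergent at 10 g/l unless stated otherwise for 2 h at 4° C. After 100 000×g centrifugation, 20 μg supernatant protein run on 10% SDS-PAGE, Coomassie-stained.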

[2] = Diameter of micelles by dynamic light scattering (DLS); type: physicochemical; details: for Ø, nm: estimated micelle diameter by DLS, 30 mM tris-HCl, pH 8.0
Method: FIG. 5 depicts the dynamic light scattering (DLS) of clips, in intensity (%, column A on the left) and in number (%, column B on the right), as a function of the […] (nm). The estimated diameters are indicated on each panel (column A). Columns A and B, from top to bottom: compound 3.7c (10 mM, 5×CMC), compound 3.7d (10 mM, 5×CMC), compound 3.7e (2 mM, […]), compound 3.7f (10 mM, 500×CMC), compound 3.7h (1 mM, 100×CMC), compound 3.7j (2 mM, 100×CMC), compound 3.9a (1 mM, 50×CMC).
Another physicochemical parameter of the micelles of detergents is their diameter, assuming that they are spherical. This dimension is obtained by the light scattering (DLS) technique.
Procedure. The molecules of the invention tested were prepared in a range of concentrations extending from 0.1 to 1000×CMC in 30 mM tris-HCl, pH 8.0 and neutralized at this pH. The solutions are filtered on 0.22 μm. The measurement is carried out on 100 μl, in triplicate on a Zetasizer Nano-S from Malvern Instruments.

Row | Compound | CMC [1] [mM] | extraction of AcrB (AcrB) | Ø, nm [2] [nm] | CMC (breakage in the slope of DPH fluorescence, FIG. 4) ([1]; triplicates) [mM] | estimated diameter ([2]; DLS) [nm]
1 | CCCCCCCCCCCC(=O)N[C@@H](COCc1cn(CCO[C@@H]2OC(CO)[C@@H](O)C(O)C2O)nn1)C(=O)N[C@H](CCC(=O)O)C(=O)O (stereo partly shown) [Compound 3.7b] | 1.5 | do not extract |  |  | 
2 | CCCCCCCCCCCCCC(=O)N[C@@H](COCc1cn(CCO[C@@H]2OC(CO)[C@@H](O)C(O)C2O)nn1)C(=O)N[C@H](CCC(=O)O)C(=O)O (stereo partly shown) [Compound 3.7c] | 1 | extracting | 3.8 |  | 
3 | CCCCCCCCCCCCCC(=O)N[C@@H](COCc1cn(CCO[C@@H]2OC(CO)[C@@H](O[C@H]3OC(CO)[C@@H](O)C(O)C3O)C(O)C2O)nn1)C(=O)N[C@H](CCC(=O)O)C(=O)O (stereo partly shown) [Compound 3.7e] | 2 | extracting | 3.5 | 2 | 
4 | CCCCCCCCCCCCCC(=O)N[C@@H](COCc1cn(CCOCCOCCOCCOCCOCCOC)nn1)C(=O)N[C@H](CCC(=O)O)C(=O)O [Compound 3.7g] | 1 |  |  |  | 
5 | CCCCCCCCCCCCC(CCCCCCCCCCCC)C(=O)N[C@@H](COCc1cn(CCO[C@@H]2OC(CO)[C@@H](O)C(O)C2O)nn1)C(=O)N[C@H](CCC(=O)O)C(=O)O (stereo partly shown) [Compound 3.7j] | 0.02 | extracting | 60 |  | ~60
6 | CCCCCCCCCCCCCC(=O)N[C@@H](COCc1cn(CCO[C@@H]2OC(CO)[C@@H](O)C(O)C2O)nn1)C(=O)N[C@@H](CCC(=O)O)C(=O)NCC(=O)O (stereo partly shown) [Compound 3.7l] | 1 | extracting |  |  | 
